# Results published in US12343326B2, “Psychoactive medicines and their use for treating psychiatric and neurological conditions and disorders” (Transcend Therapeutics, Inc., priority 2021, dated 2025).
# Like-named read-outs stand apart in the source and are kept apart here.
# Assays:
# [1] = tested on: mice; details: MDMA 7.5 mg/kg 30 minutes prior to extinction training (Young et al. 2015); cited from earlier work
# [2] = tested on: gene expression in amygdala, frontal cortex, hippocampus; assay: RNA-sequencing of brain areas after a single dose; type: in vivo, rat
# [3] = retrospective reports / meta-analysis of overdose deaths; cited from earlier work
# [4] = tested on: myelin basic protein (MBP); assay: Immunohistochemistry of myelin basic protein; type: in vivo, rat; details: 10 mg/kg IP, 24 h
# Experimental: Immunohistochemistry: The in-life portion of the study was conducted at WuXi Apptec (Cranbury, NJ). Sectioning and staining of brains took place at Neuroscience Associates (NSA, Knoxville, TN). […] Brains were post-fixed in PFA before shipment to NSA for processing and staining. Hemisected brains were mounted, sectioned and stained using standard protocols with myelin-basic protein primary antibody (MBP SMI-99, 1:5000, Biolegend, San Diego, CA) and anti-mouse biotinylated secondary antibody (BA-2001, Vector Laboratories, Newark, CA). Slides were imaged using a Huron Digital Pathology TissueScope LE120 whole slide scanning system. 20× objective was used with a 0.4 μm/pixel resolution.
# [5] = molecular target: T1, 5HT2C receptor (Homo sapiens, UniProt P28335); assay: GPCRmax screen, antagonist mode; type: cell-based; details: 1 or 10 mM; threshold 50%
# T1 construct: beta-galactosidase enzyme fragment (PathHunter complementation tag); host or cells: PathHunter cell lines
# T1 sequence (P28335 33-458): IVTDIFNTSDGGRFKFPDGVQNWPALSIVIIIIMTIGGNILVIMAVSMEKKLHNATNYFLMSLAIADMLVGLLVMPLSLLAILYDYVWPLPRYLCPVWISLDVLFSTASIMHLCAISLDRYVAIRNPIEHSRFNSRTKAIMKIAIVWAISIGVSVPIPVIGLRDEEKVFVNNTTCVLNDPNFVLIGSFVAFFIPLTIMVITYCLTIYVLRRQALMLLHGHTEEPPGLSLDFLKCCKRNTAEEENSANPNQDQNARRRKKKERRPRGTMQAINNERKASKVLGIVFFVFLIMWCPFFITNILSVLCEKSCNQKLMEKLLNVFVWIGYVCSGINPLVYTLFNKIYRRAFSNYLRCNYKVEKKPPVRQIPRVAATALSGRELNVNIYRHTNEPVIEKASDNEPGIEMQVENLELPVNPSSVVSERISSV
# [6] = molecular target: T1, 5HT2C receptor; assay: GPCRmax screen, agonist mode; type: cell-based; details: 1 or 10 mM; threshold 30%
# [7] = molecular target: T2, 5HT2A receptor (Homo sapiens, UniProt P28223); assay: GPCRmax screen, agonist mode; type: cell-based; details: 1 or 10 mM; threshold 30%
# T2 construct: beta-galactosidase enzyme fragment (PathHunter complementation tag); host or cells: PathHunter cell lines
# T2 sequence (P28223 whole entry, the tested form may be a part): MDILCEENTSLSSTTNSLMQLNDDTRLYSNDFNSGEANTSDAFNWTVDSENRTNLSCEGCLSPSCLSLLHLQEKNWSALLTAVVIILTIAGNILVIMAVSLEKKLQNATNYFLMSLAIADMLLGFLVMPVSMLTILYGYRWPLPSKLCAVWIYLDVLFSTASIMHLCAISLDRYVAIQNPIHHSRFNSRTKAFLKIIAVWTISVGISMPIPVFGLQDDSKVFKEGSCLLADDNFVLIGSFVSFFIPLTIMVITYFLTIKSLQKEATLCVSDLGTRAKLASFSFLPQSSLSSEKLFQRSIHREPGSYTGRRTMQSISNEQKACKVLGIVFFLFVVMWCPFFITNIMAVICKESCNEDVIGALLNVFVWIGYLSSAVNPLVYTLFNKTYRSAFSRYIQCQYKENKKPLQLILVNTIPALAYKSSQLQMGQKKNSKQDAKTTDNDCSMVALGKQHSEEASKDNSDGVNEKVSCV
# [8] = tested on: rats (Sprague Dawley; Flinders Sensitive Line); details: cited from earlier work
smiles,measurement,setting,value
"CNC(C)Cc1ccc2c(c1)OCO2 (racemic) [MDMA, 3,4-Methylenedioxymethamphetamine]",reduced freezing vs. saline (extinction recall),[1],35%
same,"more genes regulated than methylone, frontal cortex",[2]; 10 mg/kg IP,~72%
same,"genes regulated by MDMA that are also regulated by methylone, amygdala",[2]; 10 mg/kg IP each,7%
same,blood concentration in overdose deaths,[3],478 to 53900 ng/mL
same,"MBP expression, basolateral nucleus of the amygdala, vs. vehicle",[4],significant reduction in MBP
same,"MBP expression, central nucleus of the amygdala, vs. vehicle",[4],significant reduction in MBP
same,"MBP expression, cortex (control region)",[4],No change in MBP
same,antagonist activity (% inhibition),[5],52.2%
same,agonist % activity,[6],28.0%
same,agonist % activity,[7],27.5%
same,reduction in immobility (FST),"[8]; MDMA 5 mg/kg, Flinders Sensitive Line rats",45%
same,reduction in immobility (FST),"[8]; MDMA 5 mg/kg, Sprague Dawley rats (Majumder et al. 2011)",45%
same,reduction in immobility (FST),"[8]; MDMA 10 mg/kg, Flinders Sensitive Line rats",93%
same,reduction in immobility (FST),"[8]; MDMA 10 mg/kg, Sprague Dawley rats (Majumder et al. 2011)",78%
